The structures appear in SMILES notation. A value given as a limit tells only on which side of the number the result lay.

Chain of ALK2 (Q04771 21-509): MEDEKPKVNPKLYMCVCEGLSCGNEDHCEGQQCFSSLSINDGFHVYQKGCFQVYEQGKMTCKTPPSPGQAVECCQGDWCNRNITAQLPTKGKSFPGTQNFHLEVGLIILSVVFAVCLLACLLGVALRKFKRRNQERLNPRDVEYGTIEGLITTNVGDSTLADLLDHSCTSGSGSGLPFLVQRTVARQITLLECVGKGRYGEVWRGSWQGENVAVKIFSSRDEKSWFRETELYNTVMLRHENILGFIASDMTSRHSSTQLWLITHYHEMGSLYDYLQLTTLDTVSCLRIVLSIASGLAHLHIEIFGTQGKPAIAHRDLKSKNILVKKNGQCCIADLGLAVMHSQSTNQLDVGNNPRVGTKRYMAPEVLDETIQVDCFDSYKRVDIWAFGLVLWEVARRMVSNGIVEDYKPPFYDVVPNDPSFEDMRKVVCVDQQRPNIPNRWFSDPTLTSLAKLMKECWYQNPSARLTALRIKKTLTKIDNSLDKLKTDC

For the assay, the target named is ALK2 (Homo sapiens (Human), UniProt Q04771). Put plainly: ALK2 inhibition, LanthaScreen Eu Kinase Binding Assay (ThermoFisher Scientific / Life Technologies). The settings on record: read-out: Measured Ki (IC50) Value for Compounds: IC50. How it is done:
Biochemical assays to measure the inhibitory effects of the compounds were performed by ThermoFisher Scientific (Life Technologies). ALK2 inhibition was tested using LanthaScreen™ Eu Kinase Binding Assay screening protocol.
In general terms: In TR-FRET formats the signal depends on donor and acceptor labels being close together.
What is called IC50 is the midpoint of a concentration-inhibition curve. Turning to `COc1cc(-n2cnc(Nc3nc(N4CCC[C@@H]4CO)c4cccn4n3)c2)cc(OC)c1OC` [Compound 227b, (R)-(1-(2-((1-(3,4,5-trimethoxyphenyl)-1H-imidazol-4-yl)amino)pyrrolo[2,1-f][1,2,4]triazin-4-yl)pyrrolidin-2-yl)methanol], the IC50 is 100 to 1000 nM.
Consider `COc1cncc(-n2cnc(Nc3nc(N4CCC[C@H]4CO)c4cccn4n3)c2)c1` [Compound 228d, (S)-(1-(2-((1-(5-methoxypyridin-3-yl)-1H-imidazol-4-yl)amino)pyrrolo[2,1-f][1,2,4]triazin-4-yl)pyrrolidin-2-yl)methanol], for which the IC50 lay within 100 to 1000 nM.
For `COc1ccc(-n2cnc(Nc3nc(N4CCC[C@H]4CO)c4cccn4n3)c2)cc1C(F)(F)F` [Compound 229d, (S)-(1-(2-((1-(4-methoxy-3-(trifluoromethyl)phenyl)-1H-imidazol-4-yl)amino)pyrrolo[2,1-f][1,2,4]triazin-4-yl)pyrrolidin-2-yl)methanol] the value was 100 to 1000 nM.
For the molecule `COc1cc(-n2cnc(Nc3nc(N4CCC[C@H]4C(N)=O)c4cccn4n3)c2)cc(C(N)=O)c1OC` [Compound 230f, (S)-1-(2-((1-(3-carbamoyl-4,5-dimethoxyphenyl)-1H-imidazol-4-yl)amino)pyrrolo[2,1-f][1,2,4]triazin-4-yl)pyrrolidine-2-carboxamide], the IC50 was above 1000 nM.
For `COc1cc(-n2cnc(Nc3nc(N4CCC[C@H]4CO)c4cccn4n3)c2)cc(C(N)=O)c1OC` [Compound 231a, (S)-5-(4-((4-(2-(hydroxymethyl)pyrrolidin-1-yl)pyrrolo[2,1-f][1,2,4]triazin-2-yl)amino)-1H-imidazol-1-yl)-2,3-dimethoxybenzamide], the IC50 lay within 100 to 1000 nM.
On to `COc1cc(-n2cnc(Nc3nc(N4CCCC4)c4ncsc4n3)c2)cc(OC)c1OC` [Compound 233b, 7-(pyrrolidin-1-yl)-N-(1-(3,4,5-trimethoxyphenyl)-1H-imidazol-4-yl)thiazolo[5,4-d]pyrimidin-5-amine], for which the IC50 lay in the range of 100 to 1000 nM.
Turning to `COc1cc(-n2cnc(Nc3nc(N4CCC[C@H]4CO)c4cccn4n3)c2)cc(C(C)=O)c1OC` [Compound 234e, (S)-1-(5-(4-((4-(2-(hydroxymethyl)pyrrolidin-1-yl)pyrrolo[2,1-f][1,2,4]triazin-2-yl)amino)-1H-imidazol-1-yl)-2,3-dimethoxyphenyl)ethanone], the IC50 is 100 to 1000 nM.
As to `COc1cc(-n2cnc(Nc3nc(N4CCN(C)CC4)nc4ccoc34)c2)cc(OC)c1OC` [Compound 235a, 2-(4-methylpiperazin-1-yl)-N-(1-(3,4,5-trimethoxyphenyl)-1H-imidazol-4-yl)furo[3,2-d]pyrimidin-4-amine], the IC50 was below 100 nM.
`COc1cc(-n2cnc(Nc3nc(N4CC[C@@H](O)C4)nc4ccoc34)c2)cc(OC)c1OC` [Compound 236a, (R)-1-(4-((1-(3,4,5-trimethoxyphenyl)-1H-imidazol-4-yl)amino)furo[3,2-d]pyrimidin-2-yl)pyrrolidin-3-ol]: the IC50 was below 100 nM.
On to `COc1cc(-n2cnc(Nc3nc(N4CC[C@H](O)C4)nc4ccoc34)c2)cc(OC)c1OC` [Compound 237a, (S)-1-(4-((1-(3,4,5-trimethoxyphenyl)-1H-imidazol-4-yl)amino)furo[3,2-d]pyrimidin-2-yl)pyrrolidin-3-ol], for which the IC50 is below 100 nM.
As to `COc1cc(-n2cnc(Nc3nc(N4CCC[C@@H]4CO)nn4cccc34)c2)cc(OC)c1OC` [Compound 238a, (R)-(1-(4-((1-(3,4,5-trimethoxyphenyl)-1H-imidazol-4-yl)amino)pyrrolo[2,1-f][1,2,4]triazin-2-yl)pyrrolidin-2-yl)methanol], the IC50 was below 100 nM.
As for `COc1cc(-n2cnc(Nc3nc4c(c(N5CCC[C@H]5CO)n3)CN(C(=O)C3CC3)CC4)c2)cc(OC)c1OC` [Compound 239a, (S)-cyclopropyl(4-(2-(hydroxymethyl)pyrrolidin-1-yl)-2-((1-(3,4,5-trimethoxyphenyl)-1H-imidazol-4-yl)amino)-7,8-dihydropyrido[4,3-d]pyrimidin-6(5H)-yl)methanone], the IC50 was below 100 nM.
